# Read-outs that look alike come from different tables or passages of the source.
# Assays:
# CGN1 = target: T1, CGN1 (Bos taurus, UniProt P23805); assay: Viral trapping in VLPs, MS analysis; assay type: binding; details: all proteins (incl. low confidence identifications)
# T1 construct: host or cells: VLPs from HEK293T supernatant
# Method: (§1) For mass spectrometry, 10^7 HEK293T cells were seeded in five flasks (75 cm^2) and transfected the next day with a total of 15 μg DNA per flask using polyethylene imine reagent. The following DNA quantities were used per flask: 7.5 μg of GAG-eDHFR, 5.4 μg of mock vector and 2.1 μg of a 50/50 mix of pMD2.G and pcDNA3-FLAG-VSV-G. The small molecule fusions were added immediately after transfection to the producing cells at a concentration of 1 μM. The same dilution of dimethyl sulfoxide (DMSO) was added in control experiments to control the effect of this chemical on the cells. The cellular supernatant was harvested after 32 hours and was centrifuged for 3 minutes at 450×g to remove cellular debris. The cleared supernatant was then filtered using 0.45 μm filters (Millipore). A total of 100 μl MyOne™ Streptavidin T1 beads (Life Technologies) pre-loaded with 10 μg ANTI-FLAG® BioM2-Biotin antibody (Sigma-Aldrich®) was used to bind the tagged particles. Particles were allowed to bind for 2 hours by end-over-end rotation. The total supernatant was processed in three consecutive binding steps. Bead-particle complexes were washed once with washing buffer (TWB: 20 mM Tris-HCl pH 7.5, 150 mM NaCl) and were then eluted with FLAG peptide (200 μg/ml in TWB) and lysed by addition of SDS to a final concentration of 0.1%. After 5 minutes, SDS was removed using HiPPR Detergent Removal Spin Columns (Pierce, Thermo Scientific) followed by boiling and overnight digestion with 0.5 μg sequence-grade trypsin (Promega). After acidification (0.1% TFA final), the peptides were separated by nano-LC and directly analyzed with a Q Exactive instrument (Thermo Scientific).
# (§2) For tamoxifen, four biological repeats were performed where the cells were treated with MTX-PEG6-tamoxifen after transfection. The obtained protein lists after viral trapping and MS analysis were challenged with protein lists coming from the four DMSO controls, the 19 control experiments and the lists obtained for the MTX-PEG6-simvastatin and MTX-PEG6-reversine (see below) for a total of 30 samples.
# DNAJB12 = target: T2, DNAJB12 (Homo sapiens, UniProt Q9NXW2); assay: Viral trapping in VLPs, MS analysis; assay type: binding; details: all proteins (incl. low confidence identifications)
# T2 construct: endogenous in cells; host or cells: HEK293T
# Method: as §1, §2
# EI24 = target: T3, EI24 (Homo sapiens, UniProt O14681); assay: Viral trapping in VLPs, MS analysis; assay type: binding; details: all proteins (incl. low confidence identifications)
# T3 construct: endogenous in cells; host or cells: HEK293T
# Method: as §1, §2
# ENPP4 = target: T4, ENPP4 (Homo sapiens, UniProt Q9Y6X5); assay: Viral trapping in VLPs, MS analysis; assay type: binding; details: all proteins (incl. low confidence identifications)
# T4 construct: endogenous in cells; host or cells: HEK293T
# Method: as §1, §2
# EPHX1 = target: T5, EPHX1 (Homo sapiens, UniProt P07099); assay: Viral trapping in VLPs, MS analysis; assay type: binding; details: all proteins (incl. low confidence identifications)
# T5 construct: endogenous in cells; host or cells: HEK293T
# Method: as §1, §2
# ESYT2 = target: T6, ESYT2 (Homo sapiens, UniProt A0FGR8); assay: Viral trapping in VLPs, MS analysis; assay type: binding
# T6 construct: endogenous in cells; host or cells: HEK293T
# Method: as §1, §2
# GRAMD4 = target: T7, GRAMD4 (Homo sapiens, UniProt Q6IC98); assay: Viral trapping in VLPs, MS analysis; assay type: binding; details: all proteins (incl. low confidence identifications)
# T7 construct: endogenous in cells; host or cells: HEK293T
# Method: as §1, §2
# HSD17B12 = target: T8, HSD17B12 (Homo sapiens, UniProt Q53GQ0); assay: Viral trapping in VLPs, MS analysis; assay type: binding; details: all proteins (incl. low confidence identifications)
# T8 construct: endogenous in cells; host or cells: HEK293T
# Method: as §1, §2
# HSD17B4 = target: T9, HSD17B4 (Homo sapiens, UniProt P51659); assay: Viral trapping in VLPs, MS analysis; assay type: binding
# T9 construct: endogenous in cells; host or cells: HEK293T
# T9 sequence (P51659 1-736): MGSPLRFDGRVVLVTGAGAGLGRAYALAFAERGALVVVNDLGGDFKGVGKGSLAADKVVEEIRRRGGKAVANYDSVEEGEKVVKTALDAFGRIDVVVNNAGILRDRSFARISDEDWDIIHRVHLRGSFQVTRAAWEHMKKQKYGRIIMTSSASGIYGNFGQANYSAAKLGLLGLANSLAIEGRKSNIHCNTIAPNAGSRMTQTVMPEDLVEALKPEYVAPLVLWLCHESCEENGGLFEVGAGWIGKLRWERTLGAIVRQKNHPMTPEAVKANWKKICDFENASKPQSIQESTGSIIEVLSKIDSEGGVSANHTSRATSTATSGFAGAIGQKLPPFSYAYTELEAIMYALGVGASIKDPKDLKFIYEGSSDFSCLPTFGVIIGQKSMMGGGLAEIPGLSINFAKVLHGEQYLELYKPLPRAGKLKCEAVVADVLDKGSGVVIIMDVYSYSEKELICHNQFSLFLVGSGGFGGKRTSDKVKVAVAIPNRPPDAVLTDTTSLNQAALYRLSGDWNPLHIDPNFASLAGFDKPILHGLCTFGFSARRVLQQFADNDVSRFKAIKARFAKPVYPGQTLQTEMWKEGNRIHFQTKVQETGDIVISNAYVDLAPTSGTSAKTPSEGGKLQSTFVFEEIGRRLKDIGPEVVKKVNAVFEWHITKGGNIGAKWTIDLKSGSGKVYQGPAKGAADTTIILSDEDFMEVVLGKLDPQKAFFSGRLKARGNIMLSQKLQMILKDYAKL
# Method: as §1, §2
# LRRC59 = target: T10, LRRC59 (Homo sapiens, UniProt Q96AG4); assay: Viral trapping in VLPs, MS analysis; assay type: binding; details: all proteins (incl. low confidence identifications)
# T10 construct: endogenous in cells; host or cells: HEK293T
# Method: as §1, §2
# PCSK5 = target: T11, PCSK5 (Homo sapiens, UniProt Q92824); assay: Viral trapping in VLPs, MS analysis; assay type: binding; details: all proteins (incl. low confidence identifications)
# T11 construct: endogenous in cells; host or cells: HEK293T
# Method: as §1, §2
# PRAF2 = target: T12, PRAF2 (Homo sapiens, UniProt O60831); assay: Viral trapping in VLPs, MS analysis; assay type: binding; details: all proteins (incl. low confidence identifications)
# T12 construct: endogenous in cells; host or cells: HEK293T
# Method: as §1, §2
# PTPLAD1 = target: T13, PTPLAD1 (Homo sapiens, UniProt Q9P035); assay: Viral trapping in VLPs, MS analysis; assay type: binding; details: all proteins (incl. low confidence identifications)
# T13 construct: endogenous in cells; host or cells: HEK293T
# Method: as §1, §2
# RNF5 = target: T14, RNF5 (Homo sapiens, UniProt Q99942); assay: Viral trapping in VLPs, MS analysis; assay type: binding; details: all proteins (incl. low confidence identifications)
# T14 construct: endogenous in cells; host or cells: HEK293T
# Method: as §1, §2
# RTN3 = target: T15, RTN3 (Homo sapiens, UniProt O95197); assay: Viral trapping in VLPs, MS analysis; assay type: binding; details: all proteins (incl. low confidence identifications)
# T15 construct: endogenous in cells; host or cells: HEK293T
# Method: as §1, §2
# SEC61B = target: T16, SEC61B (Homo sapiens, UniProt P60468); assay: Viral trapping in VLPs, MS analysis; assay type: binding; details: all proteins (incl. low confidence identifications)
# T16 construct: endogenous in cells; host or cells: HEK293T
# Method: as §1, §2
# SREBF2 = target: T17, SREBF2 (Homo sapiens, UniProt Q12772); assay: Viral trapping in VLPs, MS analysis; assay type: binding; details: all proteins (incl. low confidence identifications)
# T17 construct: endogenous in cells; host or cells: HEK293T
# Method: as §1, §2
# VAPA = target: T18, VAPA (Homo sapiens, UniProt Q9P0L0); assay: Viral trapping in VLPs, MS analysis; assay type: binding
# T18 construct: endogenous in cells; host or cells: HEK293T
# Method: as §1, §2
# C28H10ORF35 = details: all proteins (incl. low confidence identifications)
# Method: as §1, §2
# FAM62A = system: FAM62A
# Method: as §1, §2
# PRSS3 = details: all proteins (incl. low confidence identifications)
# Method: as §1, §2
# [1] = all proteins (incl. low confidence identifications)
# [2] = proteins identified with >1 peptide (high confidence)
# T6 sequence (A0FGR8 whole entry): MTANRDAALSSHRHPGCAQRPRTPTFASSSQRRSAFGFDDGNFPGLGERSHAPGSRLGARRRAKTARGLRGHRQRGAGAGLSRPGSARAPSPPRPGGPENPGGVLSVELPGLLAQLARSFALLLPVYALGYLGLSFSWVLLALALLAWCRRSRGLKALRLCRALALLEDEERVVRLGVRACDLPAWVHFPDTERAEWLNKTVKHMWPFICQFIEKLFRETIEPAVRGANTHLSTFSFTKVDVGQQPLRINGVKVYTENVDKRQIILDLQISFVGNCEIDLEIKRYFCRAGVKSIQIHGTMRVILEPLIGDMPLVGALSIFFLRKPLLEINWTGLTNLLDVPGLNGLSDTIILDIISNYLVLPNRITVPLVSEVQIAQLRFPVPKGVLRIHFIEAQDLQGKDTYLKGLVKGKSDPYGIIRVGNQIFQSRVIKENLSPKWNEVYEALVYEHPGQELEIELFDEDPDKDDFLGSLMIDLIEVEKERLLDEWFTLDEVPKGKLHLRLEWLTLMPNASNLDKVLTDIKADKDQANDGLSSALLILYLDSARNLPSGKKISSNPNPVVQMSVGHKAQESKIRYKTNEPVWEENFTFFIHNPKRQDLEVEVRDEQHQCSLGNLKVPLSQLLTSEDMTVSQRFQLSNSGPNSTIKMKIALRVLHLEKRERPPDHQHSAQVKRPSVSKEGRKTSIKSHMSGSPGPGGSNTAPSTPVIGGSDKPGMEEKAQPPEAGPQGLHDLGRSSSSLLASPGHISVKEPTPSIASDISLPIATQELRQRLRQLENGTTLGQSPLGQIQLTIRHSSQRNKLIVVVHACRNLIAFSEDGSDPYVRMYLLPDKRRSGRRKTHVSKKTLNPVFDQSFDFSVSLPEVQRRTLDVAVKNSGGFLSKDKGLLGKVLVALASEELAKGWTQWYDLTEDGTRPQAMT
# T18 sequence (Q9P0L0 whole entry): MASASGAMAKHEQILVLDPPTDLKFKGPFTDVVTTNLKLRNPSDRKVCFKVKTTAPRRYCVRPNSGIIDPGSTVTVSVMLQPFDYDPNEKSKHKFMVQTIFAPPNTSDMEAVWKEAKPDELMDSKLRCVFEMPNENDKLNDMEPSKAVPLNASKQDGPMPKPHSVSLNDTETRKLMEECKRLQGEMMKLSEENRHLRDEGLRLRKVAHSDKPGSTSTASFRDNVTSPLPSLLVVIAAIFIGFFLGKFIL
# T1 sequence (P23805 21-371): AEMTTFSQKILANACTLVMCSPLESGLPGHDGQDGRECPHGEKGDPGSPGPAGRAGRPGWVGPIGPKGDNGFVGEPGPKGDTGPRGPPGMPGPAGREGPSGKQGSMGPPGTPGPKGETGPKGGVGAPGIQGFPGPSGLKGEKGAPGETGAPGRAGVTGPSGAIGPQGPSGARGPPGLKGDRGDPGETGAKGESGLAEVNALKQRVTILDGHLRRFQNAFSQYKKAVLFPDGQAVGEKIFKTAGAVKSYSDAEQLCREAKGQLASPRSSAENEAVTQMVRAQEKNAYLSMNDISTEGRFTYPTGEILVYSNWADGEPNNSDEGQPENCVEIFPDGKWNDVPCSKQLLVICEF
# T8 sequence (Q53GQ0 whole entry): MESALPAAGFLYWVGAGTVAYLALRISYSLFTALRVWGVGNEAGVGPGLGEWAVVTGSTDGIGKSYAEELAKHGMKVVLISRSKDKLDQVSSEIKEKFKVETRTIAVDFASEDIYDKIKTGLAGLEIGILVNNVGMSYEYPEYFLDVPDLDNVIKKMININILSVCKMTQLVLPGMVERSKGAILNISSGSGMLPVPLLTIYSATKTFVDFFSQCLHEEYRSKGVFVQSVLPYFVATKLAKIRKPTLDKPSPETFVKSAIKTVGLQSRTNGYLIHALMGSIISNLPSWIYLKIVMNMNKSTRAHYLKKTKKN
# T5 sequence (P07099 whole entry): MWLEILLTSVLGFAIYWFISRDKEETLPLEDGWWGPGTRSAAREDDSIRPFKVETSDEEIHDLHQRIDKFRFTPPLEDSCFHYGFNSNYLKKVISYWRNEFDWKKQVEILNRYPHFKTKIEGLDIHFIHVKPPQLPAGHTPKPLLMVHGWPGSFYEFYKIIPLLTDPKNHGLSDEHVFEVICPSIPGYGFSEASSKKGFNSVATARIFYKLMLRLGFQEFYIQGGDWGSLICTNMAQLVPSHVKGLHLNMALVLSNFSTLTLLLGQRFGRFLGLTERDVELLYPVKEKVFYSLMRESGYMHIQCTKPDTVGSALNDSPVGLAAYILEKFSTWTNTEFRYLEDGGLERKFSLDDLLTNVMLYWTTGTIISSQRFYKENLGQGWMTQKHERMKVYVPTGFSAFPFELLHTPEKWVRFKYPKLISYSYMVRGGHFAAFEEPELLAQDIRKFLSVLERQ
# T16 sequence (P60468 2-96 limits assumed): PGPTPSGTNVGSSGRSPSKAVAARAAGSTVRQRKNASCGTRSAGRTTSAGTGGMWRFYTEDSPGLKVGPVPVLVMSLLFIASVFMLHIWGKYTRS
# T16 sequence (P61619 whole entry partner): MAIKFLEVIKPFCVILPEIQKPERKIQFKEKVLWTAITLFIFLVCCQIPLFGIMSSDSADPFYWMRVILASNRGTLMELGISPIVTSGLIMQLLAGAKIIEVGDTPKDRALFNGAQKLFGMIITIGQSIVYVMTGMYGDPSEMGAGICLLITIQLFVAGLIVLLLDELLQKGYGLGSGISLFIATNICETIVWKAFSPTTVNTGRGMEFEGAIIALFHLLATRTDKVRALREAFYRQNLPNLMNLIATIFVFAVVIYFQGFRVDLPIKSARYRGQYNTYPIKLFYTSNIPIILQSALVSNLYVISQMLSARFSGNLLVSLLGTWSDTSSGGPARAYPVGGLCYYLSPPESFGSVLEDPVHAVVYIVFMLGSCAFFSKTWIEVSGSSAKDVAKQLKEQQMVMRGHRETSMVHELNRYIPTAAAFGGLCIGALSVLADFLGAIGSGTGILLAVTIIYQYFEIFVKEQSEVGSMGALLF
# T16 sequence (P60059 whole entry partner): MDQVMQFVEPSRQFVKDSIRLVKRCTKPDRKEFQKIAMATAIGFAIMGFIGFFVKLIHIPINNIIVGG
# T17 sequence (Q12772 whole entry): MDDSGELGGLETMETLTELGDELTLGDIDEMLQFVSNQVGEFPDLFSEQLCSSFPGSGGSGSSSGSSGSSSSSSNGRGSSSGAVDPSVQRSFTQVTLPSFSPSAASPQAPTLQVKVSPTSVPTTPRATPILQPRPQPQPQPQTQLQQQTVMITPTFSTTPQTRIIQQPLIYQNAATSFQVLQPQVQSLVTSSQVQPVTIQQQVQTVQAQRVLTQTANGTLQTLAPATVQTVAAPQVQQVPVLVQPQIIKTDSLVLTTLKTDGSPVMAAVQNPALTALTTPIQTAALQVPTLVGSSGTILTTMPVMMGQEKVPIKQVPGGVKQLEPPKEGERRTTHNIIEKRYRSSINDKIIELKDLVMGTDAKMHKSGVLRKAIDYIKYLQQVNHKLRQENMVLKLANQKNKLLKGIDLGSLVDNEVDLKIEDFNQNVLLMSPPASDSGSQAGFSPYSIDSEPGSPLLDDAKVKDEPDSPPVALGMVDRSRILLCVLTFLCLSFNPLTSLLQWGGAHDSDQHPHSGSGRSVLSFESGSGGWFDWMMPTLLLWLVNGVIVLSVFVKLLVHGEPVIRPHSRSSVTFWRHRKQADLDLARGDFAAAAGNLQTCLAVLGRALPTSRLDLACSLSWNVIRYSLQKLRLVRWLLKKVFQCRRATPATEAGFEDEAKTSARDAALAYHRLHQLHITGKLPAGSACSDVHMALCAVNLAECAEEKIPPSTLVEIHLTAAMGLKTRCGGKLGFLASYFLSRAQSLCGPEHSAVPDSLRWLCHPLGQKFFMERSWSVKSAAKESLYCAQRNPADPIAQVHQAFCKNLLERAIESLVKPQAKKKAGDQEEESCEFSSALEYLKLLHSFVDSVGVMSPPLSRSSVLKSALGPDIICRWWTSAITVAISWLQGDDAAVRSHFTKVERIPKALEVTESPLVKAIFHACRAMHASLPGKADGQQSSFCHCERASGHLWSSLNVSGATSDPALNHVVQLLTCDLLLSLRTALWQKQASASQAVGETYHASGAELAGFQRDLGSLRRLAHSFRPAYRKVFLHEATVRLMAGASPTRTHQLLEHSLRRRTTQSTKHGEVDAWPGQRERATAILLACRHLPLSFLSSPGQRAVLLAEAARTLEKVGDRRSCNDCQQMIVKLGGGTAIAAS
# T13 sequence (Q9P035 whole entry): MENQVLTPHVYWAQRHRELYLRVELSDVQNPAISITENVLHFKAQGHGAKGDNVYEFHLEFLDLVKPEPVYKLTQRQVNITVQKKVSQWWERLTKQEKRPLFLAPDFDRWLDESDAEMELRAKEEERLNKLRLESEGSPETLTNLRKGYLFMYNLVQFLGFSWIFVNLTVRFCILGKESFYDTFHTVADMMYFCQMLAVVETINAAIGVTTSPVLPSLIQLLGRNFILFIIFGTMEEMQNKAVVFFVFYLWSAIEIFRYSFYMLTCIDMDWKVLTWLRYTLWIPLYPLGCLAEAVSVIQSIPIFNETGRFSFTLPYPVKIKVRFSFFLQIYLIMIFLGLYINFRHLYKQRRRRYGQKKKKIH
# T2 sequence (Q9NXW2 whole entry): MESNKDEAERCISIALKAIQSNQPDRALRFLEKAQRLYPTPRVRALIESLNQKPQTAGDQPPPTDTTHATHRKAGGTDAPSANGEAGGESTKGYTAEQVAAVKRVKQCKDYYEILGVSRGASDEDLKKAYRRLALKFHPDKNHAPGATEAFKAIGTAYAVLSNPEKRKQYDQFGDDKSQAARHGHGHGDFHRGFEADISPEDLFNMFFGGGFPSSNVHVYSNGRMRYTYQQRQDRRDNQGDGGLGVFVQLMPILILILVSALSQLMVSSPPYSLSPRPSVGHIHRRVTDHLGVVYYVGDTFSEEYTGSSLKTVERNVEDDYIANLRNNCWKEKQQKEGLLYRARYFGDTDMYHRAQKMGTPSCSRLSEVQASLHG
smiles,measurement,setting,value
CCC(=C(c1ccccc1)c1ccc(OCCN(C)Cc2cn(CCOCCOCCOCCOCCOCCNC(=O)CCC(NC(=O)c3ccc(N(C)Cc4cnc5nc(N)nc(N)c5n4)cc3)C(=O)O)nn2)cc1)c1ccccc1 (stereo not shown) [MTX-PEG6-tamoxifen],Recurrence (x/4),CGN1,1 x/4
same,Recurrence (x/4),DNAJB12,1 x/4
same,Recurrence (x/4),EI24,2 x/4
same,Recurrence (x/4),ENPP4,1 x/4
same,Recurrence (x/4),EPHX1,1 x/4
same,Recurrence (x/4),ESYT2; [1],1 x/4
same,Recurrence (x/4),ESYT2; [2],1 x/4
same,Recurrence (x/4),GRAMD4,1 x/4
same,Recurrence (x/4),HSD17B12,1 x/4
same,Recurrence (x/4),HSD17B4; [1],4 x/4
same,Recurrence (x/4),HSD17B4; [2],4 x/4
same,Recurrence (x/4),LRRC59,1 x/4
same,Recurrence (x/4),PCSK5,1 x/4
same,Recurrence (x/4),PRAF2,1 x/4
same,Recurrence (x/4),PTPLAD1,1 x/4
same,Recurrence (x/4),RNF5,3 x/4
same,Recurrence (x/4),RTN3,1 x/4
same,Recurrence (x/4),SEC61B,1 x/4
same,Recurrence (x/4),SREBF2,1 x/4
same,Recurrence (x/4),VAPA; [1],1 x/4
same,Recurrence (x/4),VAPA; [2],1 x/4
same,Recurrence (x/4),C28H10ORF35,1 x/4
same,Recurrence (x/4),FAM62A; [1],1 x/4
same,Recurrence (x/4),FAM62A; [2],1 x/4
same,Recurrence (x/4),PRSS3,1 x/4
